Measurements: EP0624315B1, “Diaryl(pyridinio and isoquinolinio) boron fungicidal agents” (AMERICAN CYANAMID COMPANY, priority 1993, dated 1994)

Assays:
[1] = system: Venturia inaequalis; assay: In vivo fungicidal evaluation, Apple Scab; settings: 200 ppm, host plants sprayed, dried, then inoculated; note: ranges in brackets are in %
[2] = system: Plasmopara viticola; assay: In vivo fungicidal evaluation, Grape Downy Mildew; settings: 200 ppm, host plants sprayed, dried, then inoculated; note: ranges in brackets are in %
[3] = system: Botrytis cinerea; assay: In vivo fungicidal evaluation, Pepper Botrytis; settings: 200 ppm, host plants sprayed, dried, then inoculated; note: ranges in brackets are in %
[4] = system: Pyricularia oryzae; format: in vivo; settings: 200 ppm, host plants sprayed, dried, then inoculated
[5] = system: Cercospora beticola; assay: In vivo fungicidal evaluation, Sugar Beet Cercospora; settings: 200 ppm, host plants sprayed, dried, then inoculated; note: ranges in brackets are in %
[6] = system: Alternaria solani; assay: In vivo fungicidal evaluation, Tomato Early Blight; settings: 200 ppm, host plants sprayed, dried, then inoculated; note: ranges in brackets are in %
[7] = system: Puccinia recondita f. sp. tritici; assay: In vivo fungicidal evaluation, Wheat Leaf Rust; settings: 200 ppm, host plants sprayed, dried, then inoculated; note: ranges in brackets are in %
[8] = system: Erysiphe graminis f. sp. tritici; assay: In vivo fungicidal evaluation, Wheat Powdery Mildew; settings: 200 ppm, host plants sprayed, dried, then inoculated; note: ranges in brackets are in %
[9] = system: Fusarium oxysporum f. sp. cucumerinum (Fusoxc); assay: In vitro fungicidal evaluation, mycelial growth inhibition in nutrient broth; format: cell-based; settings: 25 ppm, 3-4 days at 21°C, rated visually; note: ranges in brackets are in %
Method: (§1) Test compounds are dissolved or suspended in acetone and dispersed into cell well plates containing a suspension of ground fungal mycelia in a nutrient broth. Assay plates are incubated for 3-4 days at 21°C. Growth inhibition is measured visually and is rated using the following scale:
(§2) Untreated controls, solvent blanks and reference standards are included in each test.
(§3) Assay fungi include the plant pathogens, Pythium ultimum (Pythul); Rhizoctonia solani (Rhizso); Fusarium oxysporum f. sp. cucumerinum (Fusoxc); and Pseudocercosporella herpotrichoides (Psdche).
(§4) When more than one test is run, the data are averaged. The compouds evaluated are reported by compound number given in Example 5.

[10] = system: Pseudocercosporella herpotrichoides (Psdche); assay: as above; format: cell-based; settings: 25 ppm, 3-4 days at 21°C, rated visually; note: ranges in brackets are in %
Method: as §1, §2, §3, §4

[11] = system: Pythium ultimum (Pythul); assay: as above; format: cell-based; settings: 25 ppm, 3-4 days at 21°C, rated visually; note: ranges in brackets are in %
Method: as §1, §2, §3, §4

[12] = system: Rhizoctonia solani (Rhizso); assay: as above; format: cell-based; settings: 25 ppm, 3-4 days at 21°C, rated visually; note: ranges in brackets are in %
Method: as §1, §2, §3, §4

In the case of “Bis(p-fluorophenyl)methyl(5-nitroisoquinolinio)boron [Compound 15]”, the “AS (Apple Scab) disease control rating” value [1] is reported as 9 (100), the “GDM (Grape Downy Mildew) disease control rating” value (“GDM” below) [2] is reported as 0 (0) and the “PB (Pepper Botrytis) disease control rating” value (“PB” below) [3] is reported as 9 (100). The “RB (Rice Blast) disease control rating” value [4] was 3 (30 - 44), the “SBC (Sugar Beet Cercospora) disease control rating” value (from here on “SBC”) [5] was 7 (90 - 95) and the “TEB (Tomato Early Blight) disease control rating” value (from here on “TEB”) [6] was 4 (45 - 59). For the same molecule, the “WLR (Wheat Leaf Rust) disease control rating” value (“WLR” below) [7] was 0 (0), the “WPM (Wheat Powdery Mildew) disease control rating” value (shortened to “WPM”) [8] was 0 (0) and the “FUSOXC growth inhibition rating” value [9] was 9 (100). For the same molecule, the “PSDCHE growth inhibition rating” value [10] was 9 (100), the “PHTHUL growth inhibition rating” value [11] was 9 (100) and the “RHIZSO growth inhibition rating” value [12] was 9 (100).
For `CC(=O)c1cc[n+]([B-](C)(c2ccccc2)c2ccccc2)cc1` [Compound 19, (4-Acetylpyridinio)methyldiphenylboron], the “AS (Apple Scab) disease control rating” value [1] was 9 (100), the “GDM” value [2] was 9 (100) and the “PB” value [3] was 9 (100). The “RB (Rice Blast) disease control rating” value [4] was 8 (96 - 99), the “SBC” value [5] was 9 (100) and the “TEB” value [6] was 8 (96 - 99). For the same molecule, the “WPM” value [8] was 8 (96 - 99), the “FUSOXC growth inhibition rating” value [9] was 7 (90 - 99) and the “PSDCHE growth inhibition rating” value [10] was 9 (100). The “PHTHUL growth inhibition rating” value [11] was 7 (90 - 99) and the “RHIZSO growth inhibition rating” value [12] was 7 (90 - 99).
For “Butoxy(3-methylpyridinio)diphenylboron [Compound 10]”, the “AS (Apple Scab) disease control rating” value [1] was 0 (0), the “GDM” value [2] was 3 (30 - 44) and the “PB” value [3] was 6 (75 - 89). For the same molecule, the “RB (Rice Blast) disease control rating” value [4] was 0 (0), the “SBC” value [5] was 0 (0) and the “TEB” value [6] was 0 (0). For the same molecule, the “WLR” value [7] was 0 (0), the “WPM” value [8] was 0 (0) and the “FUSOXC growth inhibition rating” value [9] was 9 (100). For the same molecule, the “PSDCHE growth inhibition rating” value [10] was 7 (90 - 99), the “PHTHUL growth inhibition rating” value [11] was 9 (100) and the “RHIZSO growth inhibition rating” value [12] was 9 (100).
For `C[B-](c1ccccc1)(c1ccccc1)[n+]1ccc(-c2ccccc2)cc1` [Compound 17, (4-Phenylpyridinio)methyldiphenylboron], the “AS (Apple Scab) disease control rating” value [1] was 9 (100), the “GDM” value [2] was 9 (100) and the “PB” value [3] was 9 (100). The “RB (Rice Blast) disease control rating” value [4] was 8 (96 - 99), the “SBC” value [5] was 8 (96 - 99) and the “TEB” value [6] was 9 (100). The “WPM” value [8] was 8 (96 - 99), the “FUSOXC growth inhibition rating” value [9] was 7 (90 - 99) and the “PSDCHE growth inhibition rating” value [10] was 7 (90 - 99). The “PHTHUL growth inhibition rating” value [11] was 0 (0) and the “RHIZSO growth inhibition rating” value [12] was 5 (60 - 89).
“(4-Cyanopyridinio)methyldiphenylboron [Compound 16]” was tested, and the “AS (Apple Scab) disease control rating” value [1] was 9 (100), the “GDM” value [2] was 9 (100) and the “PB” value [3] was 8 (96 - 99). The “RB (Rice Blast) disease control rating” value [4] was 9 (100), the “SBC” value [5] was 8 (96 - 99) and the “TEB” value [6] was 8 (96 - 99). The “WPM” value [8] was 0 (0), the “FUSOXC growth inhibition rating” value [9] was 7 (90 - 99) and the “PSDCHE growth inhibition rating” value [10] was 9 (100). For the same molecule, the “PHTHUL growth inhibition rating” value [11] was 7 (90 - 99) and the “RHIZSO growth inhibition rating” value [12] was 7 (90 - 99).
With “(5,6,7,8-Tetrahydroisoquinolinio)methyldiphenylboron [Compound 4]” the “AS (Apple Scab) disease control rating” value [1] was 9 (100), the “GDM” value [2] was 9 (100) and the “PB” value [3] was 9 (100). For the same molecule, the “RB (Rice Blast) disease control rating” value [4] was 0 (0), the “SBC” value [5] was 8 (96 - 99) and the “TEB” value [6] was 6 (75 - 89). The “WLR” value [7] was 9 (100), the “WPM” value [8] was 8 (96 - 99) and the “FUSOXC growth inhibition rating” value [9] was 9 (100). The “PSDCHE growth inhibition rating” value [10] was 9 (100), the “PHTHUL growth inhibition rating” value [11] was 7 (90 - 99) and the “RHIZSO growth inhibition rating” value [12] was 9 (100).
In the case of “(3-Butylpyridinio)methyldiphenylboron [Compound 3]”, the “AS (Apple Scab) disease control rating” value [1] is reported as 9 (100), the “GDM” value [2] is reported as 9 (100) and the “PB” value [3] is reported as 6 (75 - 89). The “RB (Rice Blast) disease control rating” value [4] was 0 (0), the “SBC” value [5] was 0 (0) and the “TEB” value [6] was 8 (96 - 99). For the same molecule, the “WLR” value [7] was 8 (96 - 99), the “WPM” value [8] was 8 (96 - 99) and the “FUSOXC growth inhibition rating” value [9] was 9 (100). The “PSDCHE growth inhibition rating” value [10] was 9 (100), the “PHTHUL growth inhibition rating” value [11] was 9 (100) and the “RHIZSO growth inhibition rating” value [12] was 9 (100).
For `C[B-](c1ccccc1)(c1ccccc1)[n+]1ccc(C(C)(C)C)cc1` [Compound 20, (4-Tert-butyl-pyridinio)methyldiphenylboron], the “AS (Apple Scab) disease control rating” value [1] was 9 (100), the “GDM” value [2] was 9 (100) and the “PB” value [3] was 9 (100). For the same molecule, the “RB (Rice Blast) disease control rating” value [4] was 8 (96 - 99), the “SBC” value [5] was 9 (100) and the “TEB” value [6] was 8 (96 - 99). The “WPM” value [8] was 7 (90 - 95), the “FUSOXC growth inhibition rating” value [9] was 7 (90 - 99) and the “PSDCHE growth inhibition rating” value [10] was 7 (90 - 99). The “PHTHUL growth inhibition rating” value [11] was 7 (90 - 99) and the “RHIZSO growth inhibition rating” value [12] was 7 (90 - 99).
For “Chloro(isoquinolinio)di-p-tolylboron [Compound 12]”, the “AS (Apple Scab) disease control rating” value [1] was 0 (0), the “GDM” value [2] was 0 (0) and the “PB” value [3] was 0 (0). For the same molecule, the “RB (Rice Blast) disease control rating” value [4] was 0 (0), the “SBC” value [5] was 7 (90 - 95) and the “TEB” value [6] was 0 (0). For the same molecule, the “WLR” value [7] was 0 (0), the “WPM” value [8] was 0 (0) and the “FUSOXC growth inhibition rating” value [9] was 7 (90 - 99). The “PSDCHE growth inhibition rating” value [10] was 5 (60 - 89), the “PHTHUL growth inhibition rating” value [11] was 7 (90 - 99) and the “RHIZSO growth inhibition rating” value [12] was 7 (90 - 99).
With “Butoxy(4-isopropylpyridinio)diphenylboron [Compound 11]” the “AS (Apple Scab) disease control rating” value [1] was 8 (96 - 99), the “GDM” value [2] was 0 (0) and the “PB” value [3] was 4 (45 - 59). The “RB (Rice Blast) disease control rating” value [4] was 0 (0), the “SBC” value [5] was 0 (0) and the “TEB” value [6] was 0 (0). The “WLR” value [7] was 0 (0), the “WPM” value [8] was 0 (0) and the “FUSOXC growth inhibition rating” value [9] was 9 (100). The “PSDCHE growth inhibition rating” value [10] was 7 (90 - 99), the “PHTHUL growth inhibition rating” value [11] was 9 (100) and the “RHIZSO growth inhibition rating” value [12] was 9 (100).
With “Hydroxy(4-isopropylpyridinio)diphenylboron [Compound 8]” the “AS (Apple Scab) disease control rating” value [1] was 0 (0), the “GDM” value [2] was 4 (45 - 59) and the “PB” value [3] was 0 (0). The “RB (Rice Blast) disease control rating” value [4] was 6 (75 - 89), the “SBC” value [5] was 0 (0) and the “TEB” value [6] was 0 (0). The “WLR” value [7] was 0 (0), the “WPM” value [8] was 0 (0) and the “FUSOXC growth inhibition rating” value [9] was 9 (100). For the same molecule, the “PSDCHE growth inhibition rating” value [10] was 0 (0), the “PHTHUL growth inhibition rating” value [11] was 9 (100) and the “RHIZSO growth inhibition rating” value [12] was 7 (90 - 99).
In the case of “Butoxy(4-methylpyridinio)diphenylboron [Compound 9]”, the “AS (Apple Scab) disease control rating” value [1] is reported as 0 (0), the “GDM” value [2] is reported as 0 (0) and the “PB” value [3] is reported as 6 (75 - 89). For the same molecule, the “RB (Rice Blast) disease control rating” value [4] was 0 (0), the “SBC” value [5] was 0 (0) and the “TEB” value [6] was 0 (0). The “WLR” value [7] was 0 (0), the “WPM” value [8] was 0 (0) and the “FUSOXC growth inhibition rating” value [9] was 9 (100). For the same molecule, the “PSDCHE growth inhibition rating” value [10] was 0 (0), the “PHTHUL growth inhibition rating” value [11] was 9 (100) and the “RHIZSO growth inhibition rating” value [12] was 0 (0).
For “Hydroxy(3-butylpyridinio)diphenylboron [Compound 7]”, the “AS (Apple Scab) disease control rating” value [1] was 6 (75 - 89), the “GDM” value [2] was 0 (0) and the “PB” value [3] was 0 (0). For the same molecule, the “RB (Rice Blast) disease control rating” value [4] was 6 (75 - 89), the “SBC” value [5] was 0 (0) and the “TEB” value [6] was 0 (0). For the same molecule, the “WLR” value [7] was 5 (60 - 74), the “WPM” value [8] was 5 (60 - 74) and the “FUSOXC growth inhibition rating” value [9] was 9 (100). For the same molecule, the “PSDCHE growth inhibition rating” value [10] was 0 (0), the “PHTHUL growth inhibition rating” value [11] was 9 (100) and the “RHIZSO growth inhibition rating” value [12] was 9 (100).
For “Bis(p-fluorophenyl)(isoquinolinio)methylboron [Compound 13]”, the “AS (Apple Scab) disease control rating” value [1] was 7 (90 - 95), the “GDM” value [2] was 9 (100) and the “PB” value [3] was 9 (100). For the same molecule, the “RB (Rice Blast) disease control rating” value [4] was 7 (90 - 95), the “SBC” value [5] was 8 (96 - 99) and the “TEB” value [6] was 8 (96 - 99). The “WLR” value [7] was 7 (90 - 95), the “WPM” value [8] was 8 (96 - 99) and the “FUSOXC growth inhibition rating” value [9] was 9 (100). For the same molecule, the “PSDCHE growth inhibition rating” value [10] was 9 (100), the “PHTHUL growth inhibition rating” value [11] was 9 (100) and the “RHIZSO growth inhibition rating” value [12] was 9 (100).
